Laboratory results taken from DBAASP.
Converted amounts (≈) assume the structure as drawn.

Columns and labels:
Assay in all cases: ≥ marks a high value that may be exact or a test limit, other limits are often not marked, values filed in µg/mL are converted to µM
Bacillus cereus DSM 4222 = tested on: Bacillus cereus DSM 4222
Bacillus cereus DSM 4312 = tested on: Bacillus cereus DSM 4312
[1] = tested on: Bacillus subtilis ATCC 6051
[2] = tested on: Clostridium perfringens ATCC 13124
[3] = tested on: Clostridium perfringens DSM 11784
[4] = tested on: Escherichia coli ATCC 35150
[5] = tested on: Escherichia coli NCTC 13452
[6] = tested on: Escherichia coli NEB5alpha
[7] = tested on: Listeria monocytogenes SLCC 5581
Listeria monocytogenes = tested on: Listeria monocytogenes
[8] = tested on: Pseudomonas fluorescens DSM 50124
[9] = tested on: Pseudomonas putida DSM 291
[10] = tested on: Salmonella enterica subsp. enterica serovar Typhimurium DSM 554
[11] = tested on: Salmonella typhimurium DSM 19587
[12] = tested on: Staphylococcus aureus ATCC 3300
[13] = tested on: Staphylococcus aureus DSM 2569
[14] = tested on: Acinetobacter baumannii b-01
[15] = tested on: Acinetobacter baumannii b-02
[16] = tested on: Acinetobacter baumannii b-03
[17] = tested on: Acinetobacter baumannii b-04
Pseudomonas aeruginosa = tested on: Pseudomonas aeruginosa
[18] = tested on: Acinetobacter baumannii 97830
[19] = tested on: Acinetobacter baumannii 9931
[20] = tested on: Acinetobacter baumannii ATCC 19606
[21] = tested on: Bacillus subtilis ATCC 23857
Escherichia coli 780 = tested on: Escherichia coli 780
Escherichia coli 804 = tested on: Escherichia coli 804
[22] = tested on: Klebsiella pneumoniae ATCC 700603
[23] = tested on: Pseudomonas aeruginosa 50
[24] = tested on: Pseudomonas aeruginosa 73
[25] = tested on: Pseudomonas aeruginosa ATCC 27853
[26] = tested on: Pseudomonas aeruginosa ATCC 9027
[27] = tested on: Staphylococcus aureus 113
Staphylococcus aureus 75 = tested on: Staphylococcus aureus 75
[28] = tested on: Staphylococcus aureus ATCC 29213
[29] = tested on: Staphylococcus epidermidis ATCC 12228
[30] = tested on: Escherichia coli ATCC 25922
[31] = tested on: Staphylococcus aureus FDA 209P

CC[C@H](C)[C@H](NC(=O)[C@@H](N)CCCN=C(N)N)C(=O)N[C@@H](CCCCN)C(=O)N[C@H](C(=O)N[C@H](C(=O)N[C@H](C(=O)N[C@@H](CO)C(=O)N[C@@H](Cc1ccccc1)C(=O)N[C@@H](CC(=O)O)C(=O)N[C@@H](CC(C)C)C(=O)N1CCC[C@H]1C(=O)N[C@@H](C)C(=O)N[C@@H](CC(C)C)C(=O)N[C@@H](CCCN=C(N)N)C(=O)N[C@@H](Cc1ccccc1)C(=O)N[C@@H](CC(C)C)C(=O)N[C@@H](CCCCN)C(=O)N[C@@H](CC(C)C)C(=O)O)[C@@H](C)O)C(C)C)[C@@H](C)O [RIKTVTSFDLPALRFLKL]
MIC (Bacillus cereus DSM 4222): ≥ 1000 µM
MIC (Bacillus cereus DSM 4312): ≥ 1000 µM
MIC [1]: 15.6 µM (≈ 33.1 µg/mL)
MIC [2]: ≥ 125 µM
MIC [3]: ≥ 1000 µM
MIC [4]: ≥ 500 µM
MIC [5]: ≥ 125 µM
MIC [6]: ≥ 62.5 µM
MIC [7]: ≥ 500 µM
MIC (Listeria monocytogenes): ≥ 250 µM
MIC [8]: ≥ 500 µM
MIC [9]: ≥ 125 µM
MIC [10]: ≥ 1000 µM
MIC [11]: ≥ 1000 µM
MIC [12]: ≥ 500 µM
MIC [13]: ≥ 500 µM

CC[C@H](C)[C@H](NC(=O)[C@H](Cc1ccccc1)NC(=O)[C@H](CO)NC(=O)[C@H](CCCCN)NC(=O)[C@H](Cc1c[nH]c2ccccc12)NC(=O)[C@@H](N)CCCCN)C(=O)N[C@@H](CCCCN)C(=O)N[C@@H](CCCCN)C(=O)N[C@@H](CC(C)C)C(=O)N[C@H](C(=O)N[C@@H](CO)C(=O)N[C@@H](CCCCN)C(=O)N[C@@H](Cc1ccccc1)C(=O)N[C@@H](CC(C)C)C(=O)N[C@@H](Cc1cnc[nH]1)C(=O)N[C@@H](CO)C(=O)N[C@@H](C)C(=O)N[C@@H](CCCCN)C(=O)N[C@@H](CCCCN)C(=O)N[C@@H](Cc1ccccc1)C(N)=O)[C@@H](C)O [KWKSFIKKLTSKFLHSAKKF]
MIC [14]: 1.27 µM (≈ 3.12 µg/mL)
MIC [15]: 2.55 µM (≈ 6.25 µg/mL)
MIC [16]: 2.55 µM (≈ 6.25 µg/mL)
MIC [17]: 1.27 µM (≈ 3.12 µg/mL)
MIC (Pseudomonas aeruginosa): 1.27 µM (≈ 3.12 µg/mL)

NCC(=O)N[C@@H](CCCN=C(N)N)C(=O)N[C@@H](CCCN=C(N)N)C(=O)N[C@@H](Cc1c[nH]c2ccccc12)C(=O)N[C@@H](Cc1c[nH]c2ccccc12)C(=O)N[C@@H](Cc1c[nH]c2ccccc12)C(=O)N[C@@H](CCCN=C(N)N)C(=O)N[C@@H](CCCN=C(N)N)C(=O)NCC(N)=O [GRRWWWRRG]
MIC [18]: ≥ 128 µM
MIC [19]: ≥ 64 µM
MIC [20]: 128 µM (≈ 168 µg/mL)
MIC [21]: 4 µM (≈ 5.26 µg/mL)
MIC (Escherichia coli 780): ≥ 32 µM
MIC (Escherichia coli 804): ≥ 32 µM
MIC [22]: 128 µM (≈ 168 µg/mL)
MIC [23]: ≥ 128 µM
MIC [24]: ≥ 128 µM
MIC [25]: > 128 µM
MIC [26]: 128 µM (≈ 168 µg/mL)
MIC [27]: 8 µM (≈ 10.5 µg/mL)
MIC (Staphylococcus aureus 75): 8 µM (≈ 10.5 µg/mL)
MIC [28]: 2 µM (≈ 2.63 µg/mL)
MIC [29]: 4 µM (≈ 5.26 µg/mL)

CC[C@H](C)[C@H](NC(=O)[C@H](CCSC)NC(=O)[C@H](CCCCN)NC(=O)[C@@H](NC(=O)[C@H](C)NC(=O)CNC(=O)[C@H](CCCCN)NC(=O)[C@@H](NC(=O)[C@H](CC(C)C)NC(=O)[C@@H](NC(=O)[C@H](Cc1ccccc1)NC(=O)[C@H](CC(C)C)NC(=O)CN)[C@@H](C)O)[C@@H](C)CC)C(C)C)C(=O)NCC(=O)N[C@@H](CCCCN)C(=O)N[C@H](C(=O)N[C@H](C(=O)N[C@@H](C)C(=O)N[C@@H](CCCCN)C(=O)N[C@@H](CCC(=O)O)C(=O)N[C@@H](C)C(=O)NCC(=O)N[C@@H](CCCCN)C(=O)N[C@H](C(=O)NCC(=O)N[C@@H](CC(C)C)C(=O)N[C@@H](CCC(=O)O)C(=O)N[C@@H](CC(C)C)C(=O)N[C@@H](CCSC)C(=O)N[C@@H](C)C(=O)N[C@H]1CSSC[C@@H](C(=O)O)NC(=O)[C@H](CCC(N)=O)NC(=O)[C@H](CC(N)=O)NC(=O)[C@H]([C@@H](C)O)NC(=O)[C@H](C(C)C)NC(=O)[C@H](CCCCN)NC1=O)[C@@H](C)O)C(C)C)[C@@H](C)O [GLFTLIKGAVKMIGKTVAKEAGKTGLELMACKVTNQC]
MIC [30]: 1.1 µM (≈ 4.24 µg/mL)
MIC [31]: 2.6 µM (≈ 10 µg/mL)
